Data reported in paper PMC3958746 (FEBS Open Bio, 2014).

Target: core histone octamer (Homo sapiens, UniProt P0C0S8+P62805+P62807+P68431)
Assay: intrinsic histone fluorescence quenching titration
Format: binding

In the case of `CC[n+]1c(-c2ccccc2)c2cc(N)ccc2c2ccc(N)cc21` [EB, ethidium bromide], the Kd is reported as 7.7 ± 0.1 µM.
